The conditions of this data set: for Purity (area %): HPLC; for degradation: after 36 hours exposure to sunlight; for appearance after exposure to sunlight: exposed to sunlight.
Where [1] appears, read: Initial, before exposure to sunlight.

Read-outs that look alike come from different tables or passages of the source.

Procedure: 100 mg each of the above-mentioned 6 salts was respectively placed in 6 test tubes to prepare a total of 36 samples (6 samples per salt), and they were exposed to sunlight for 36 hours. Then, samples of each salt were taken at 6 hour-intervals and stored in a cool and dark place. After 36 hours, each sample was diluted with a 20 mM ammonium acetate buffer solution (pH=5.0)—acetonitrile mixture (1:1, v/v) and analyzed by HPLC under the following conditions: • Column: Symmetry C8 (4.6 mm×100 mm, 3.5 μm, Water, US) • Eluent: 1 l of a solution of 7 g perchloric acid monohydrate and 1.74 g potassium monohydrogen phosphate in purified water, which adjusted to pH 2.8 by the addition of phosphoric acid.

Take `CC1(C)C2CCC1(CS(=O)(=O)O)C(=O)C2.CCOC(=O)C1=C(COCCN)NC(C)=C(C(=O)OC)[C@@H]1c1ccccc1Cl.O` (racemic) [(±)-10-Camsylate hydrate of Ex. 3, S-(−)-amlodipine (±)-10-camsylate hydrate]: the “Purity (area %)” value by setting is: under setting [1], 99.8 area %; (exposed to sunlight 6 hours) 99.9 area %; (exposed to sunlight 12 hours) 99.8 area %; (exposed to sunlight 18 hours) 99.7 area %; (exposed to sunlight 24 hours) 99.6 area %; (exposed to sunlight 30 hours) 99.4 area %. For the setting “exposed to sunlight 36 hours”, the “Purity (area %)” value is reported as 99.3 area %.

Consider `CC1(C)[C@@H]2CC[C@@]1(CS(=O)(=O)O)C(=O)C2.CCOC(=O)C1=C(COCCN)NC(C)=C(C(=O)OC)[C@@H]1c1ccccc1Cl` [(1S)-(+)-10-Camsylate anhydride of Ex. 2, S-(−)-amlodipine (1S)-(+)-10-camsylate anhydride], for which the “Purity (area %)” value was found to be 99.9 area % under setting [1]; 99.9 area % (exposed to sunlight 6 hours); 99.9 area % (exposed to sunlight 12 hours); 99.9 area % (exposed to sunlight 18 hours); 99.8 area % (exposed to sunlight 24 hours); 99.7 area % (exposed to sunlight 30 hours). Further, where the note is “exposed to sunlight 36 hours”, the “Purity (area %)” value is 99.7 area %.

Consider `CC1(C)[C@@H]2CC[C@@]1(CS(=O)(=O)O)C(=O)C2.CCOC(=O)C1=C(COCCN)NC(C)=C(C(=O)OC)[C@@H]1c1ccccc1Cl.O` [(1S)-(+)-10-Camsylate hydrate of Ex. 1, S-(−)-amlodipine (1S)-(+)-10-camsylate hydrate], for which the “Purity (area %)” value is recorded as 99.9 area % under setting [1]; 99.9 area % (exposed to sunlight 6 hours); 99.9 area % (exposed to sunlight 12 hours); 99.8 area % (exposed to sunlight 18 hours); 99.8 area % (exposed to sunlight 24 hours); 99.7 area % (exposed to sunlight 30 hours). The “Purity (area %)” value (exposed to sunlight 36 hours) stood at 99.7 area %.

As to `CC1(C)[C@H]2CC[C@]1(CS(=O)(=O)O)C(=O)C2.CCOC(=O)C1=C(COCCN)NC(C)=C(C(=O)OC)[C@@H]1c1ccccc1Cl` [(R)-Camsylate of Ref. Ex. 1, S-(−)-amlodipine (R)-camsylate], the degradation result is “about 5%”; the “appearance after exposure to sunlight” value was “color change of their surface from off-white to brown, and they becomes partially melted”. The “Purity (area %)” value under setting [1] came to 99.8 area %. Also, the “Purity (area %)” value (exposed to sunlight 6 hours) is on record as 99.9 area %. For the same compound, the “Purity (area %)” value (exposed to sunlight 12 hours) came to 99.7 area %. Moreover, the “Purity (area %)” value (exposed to sunlight 18 hours) is on record as 99.0 area %. Also, the “Purity (area %)” value (exposed to sunlight 24 hours) turned out to be 98.1 area %. For the same compound, where the note is “exposed to sunlight 30 hours”, the “Purity (area %)” value is listed as 96.2 area %. For the same compound, where the note is “exposed to sunlight 36 hours”, the “Purity (area %)” value was determined as 94.8 area %.

With `CCOC(=O)C1=C(COCCN)NC(C)=C(C(=O)OC)[C@@H]1c1ccccc1Cl.O=S(=O)(O)c1ccccc1` [Besylate, (S)-(−)-amlodipine besylate], the degradation entry is “about 7%”; the “appearance after exposure to sunlight” value is “color change of their surface from off-white to brown, and they becomes partially melted”. Moreover, the “Purity (area %)” value under setting [1] was 99.8 area %. Besides, the “Purity (area %)” value (exposed to sunlight 6 hours) was 99.9 area %. Further, the “Purity (area %)” value (exposed to sunlight 12 hours) worked out at 99.4 area %. Also, the “Purity (area %)” value (exposed to sunlight 18 hours) worked out at 98.5 area %. Moreover, for the setting “exposed to sunlight 24 hours”, the “Purity (area %)” value is 96.4 area %. The “Purity (area %)” value (exposed to sunlight 30 hours) amounted to 94.4 area %. The “Purity (area %)” value (exposed to sunlight 36 hours) was 93.4 area %.

Regarding `CCOC(=O)C1=C(COCCN)NC(C)=C(C(=O)OC)C1c1ccccc1Cl` (stereo not drawn) [Nicotinate dehydrate, (s)-(−)-amlodipine nicotinate dihyrate], the degradation is on record as approximately 2%. Under setting [1], the “Purity (area %)” value amounted to 99.8 area %. The “Purity (area %)” value (exposed to sunlight 6 hours) is given as 99.6 area %. Besides, the “Purity (area %)” value (exposed to sunlight 12 hours) came to 99.0 area %. For the same compound, the “Purity (area %)” value (exposed to sunlight 18 hours) amounted to 98.3 area %. Moreover, the “Purity (area %)” value (exposed to sunlight 24 hours) was 98.3 area %. For the same compound, for the setting “exposed to sunlight 30 hours”, the “Purity (area %)” value is 98.2 area %. Further, the “Purity (area %)” value (exposed to sunlight 36 hours) is 97.9 area %.

For the origin of these results see patent publication US20090326234A1, “(S)-(-)-Amlodipine Camsylate or Hydrate Thereof And Pharmaceutical Composition Comprising Same” (Hanmi Pharm Co., Ltd., priority 2006, published 2009).
